Calls of active or inactive are those of the source. The rule behind the calls is not given here.
Tests used:
[1] = (§1) Cytotoxicity against human PANC1 cells assessed as reduction in cell viability after 24 hrs by MTT reduction assay; format: functional, cell-based; conditions: PANC-1, 24 h
[2] = Selectivity ratio of IC50 for human HaCaT cells to IC50 for human PANC1 cells; format: ADME, cell-based; conditions: HaCaT cells versus PANC1 cells, read-out: Ratio IC50
HaCaT = assay: Cytotoxicity against human HaCaT cells assessed as reduction in cell viability after 24 hrs by MTT reduction assay; format: cell-based
PANC-1 [3] = assay: Reduction in AXL protein level in human PANC1 cells at 1.5 to 3 uM after 24 hrs by Western blot analysis; format: functional, cell-based
PANC-1 [4] = assay: Induction of apoptosis in human PANC1 cells assessed as reduction in pro-caspase-3 level at 1.5 to 3 uM after 24 hrs by Western blot analysis; format: functional, cell-based
PANC-1 [5] = assay: Induction of intracellular ROS production in human PANC1 cells at 25 to 100 uM after 1 hr using DCFH-DA by flow cytometry; format: functional, cell-based
[6] = Chemical reactivity under non-physiological condition at 25 mM using gluthatione as thiol nucleophile assessed as conjugate addition of GSH to compound after 24 hrs by 1H NMR spectroscopy; format: physicochemical; conditions: 25000 µM
[7] = biological target: Tyrosine-protein kinase receptor UFO (Homo sapiens) (UniProt P30530); assay: Inhibition of AXL in human PANC1 cells assessed as reduction in VEGF level at 1.5 to 3 uM after 24 hrs by Western blot analysis; format: cell-based; conditions: PANC-1
PANC-1 [8] = assay: Induction of apoptosis in human PANC1 cells assessed as increase in BAX/BCL-2 ratio at 1.5 to 3 uM after 24 hrs by Western blot analysis; format: functional, cell-based
[9] = Antiproliferative activity against human PANC1 cells assessed as reduction in colonies at 1.5 uM after 15 days by colony assay; format: functional, PANC-1; design: scale not given: the % may be the effect or the level left
PANC-1 [10] = assay: Reduction in cyclin D1 protein level in human PANC1 cells at 1.5 to 3 uM after 24 hrs by Western blot analysis; format: functional, cell-based
PANC-1 [11] = assay: Reduction in c-Myc protein level in human PANC1 cells at 1.5 to 3 uM after 24 hrs by Western blot analysis; format: functional, cell-based
PANC-1 [12] = assay: Induction of apoptosis in human PANC1 cells assessed as increase in cleaved PARP-1 level at 1.5 to 3 uM after 24 hrs by Western blot analysis; format: functional, cell-based
[13] = biological target: Tyrosine-protein kinase receptor UFO (Homo sapiens) (UniProt P30530); assay: Inhibition of AXL in human PANC1 cells assessed as reduction in HIF-1alpha expression at 1.5 to 3 uM after 24 hrs by Western blot analysis; format: cell-based; conditions: PANC-1
[14] = Antiproliferative activity against human PANC1 cells assessed as reduction in colonies after 15 days by colony assay; format: functional, cell-based; conditions: PANC-1, 360 h
[15] = Antiproliferative activity against human PANC1 cells assessed as reduction in colonies at 0.75 uM after 15 days by colony assay; format: functional, PANC-1; design: scale not given: the % may be the effect or the level left
[16] = biological target: Tyrosine-protein kinase receptor UFO (Homo sapiens) (UniProt P30530); assay: Inhibition of AXL in human PANC1 cells assessed as inhibition of ERK phosphorylation at Thr202/Tyr 204 at 1.5 to 3 uM after 24 hrs by Western blot analysis; format: cell-based; conditions: PANC-1
PANC-1 [17] = assay: Reduction in p-RB at Ser795 protein level in human PANC1 cells at 1.5 to 3 uM after 24 hrs by Western blot analysis; format: functional, cell-based
PANC-1 [18] = assay: Cytotoxicity against human PANC1 cells assessed as reduction in cell viability at 10 to 100 uM after 24 hrs by MTT reduction assay in presence of GSH; format: functional, cell-based
PANC-1 [19] = assay: Reduction in c-Myc protein level in human PANC1 cells at 30 to 60 uM after 24 hrs by Western blot analysis; format: functional, cell-based
PANC-1 [20] = assay: Induction of apoptosis in human PANC1 cells assessed as increase in BAX/BCL-2 ratio at 30 to 60 uM after 24 hrs by Western blot analysis; format: functional, cell-based
PANC-1 [21] = assay: Induction of apoptosis in human PANC1 cells assessed as reduction in pro-caspase-3 level at 30 to 60 uM after 24 hrs by Western blot analysis; format: functional, cell-based
[22] = biological target: Tyrosine-protein kinase receptor UFO (Homo sapiens) (UniProt P30530); assay: Effect on AXL in human PANC1 cells assessed as increase in p-ERK at Thr202/Tyr 204 protein level at 30 to 60 uM after 24 hrs by Western blot analysis; format: cell-based; conditions: PANC-1
PANC-1 [23] = assay: Cytoprotective activity in 1 hr GSH-pretreated human PANC1 cells assessed as increase in cell viability at 10 to 100 uM after 24 hrs by MTT reduction assay; format: functional, cell-based
PANC-1 [24] = assay: Induction of apoptosis in human PANC1 cells assessed as increase in cleaved PARP-1 level at 30 to 60 uM after 24 hrs by Western blot analysis; format: functional, cell-based
PANC-1 [25] = assay: Reduction in p-RB at Ser795 protein level in human PANC1 cells at 30 to 60 uM after 24 hrs by Western blot analysis; format: functional, cell-based
PANC-1 [26] = assay: Reduction in cyclin D1 protein level in human PANC1 cells at 30 to 60 uM after 24 hrs by Western blot analysis; format: functional, cell-based
[27] = Antiproliferative activity against human PANC1 cells assessed as reduction in colonies at 15 uM after 15 days by colony assay; format: functional, PANC-1; design: scale not given: the % may be the effect or the level left
PANC-1 [28] = assay: as §1; format: functional, cell-based
PANC-1 [29] = assay: Reduction in AXL protein level in human PANC1 cells at 30 to 60 uM after 24 hrs by Western blot analysis; format: functional, cell-based
PANC-1 [30] = assay: Induction of intracellular ROS production in human PANC1 cells at 1.5 to 3 uM after 1 hr using DCFH-DA by flow cytometry; format: functional, cell-based
[31] = Antiproliferative activity against human PANC1 cells assessed as reduction in colonies at 30 uM after 15 days by colony assay; format: functional, PANC-1; design: scale not given: the % may be the effect or the level left

Tyrosine-protein kinase receptor UFO (Homo sapiens), sequence (P30530 whole entry): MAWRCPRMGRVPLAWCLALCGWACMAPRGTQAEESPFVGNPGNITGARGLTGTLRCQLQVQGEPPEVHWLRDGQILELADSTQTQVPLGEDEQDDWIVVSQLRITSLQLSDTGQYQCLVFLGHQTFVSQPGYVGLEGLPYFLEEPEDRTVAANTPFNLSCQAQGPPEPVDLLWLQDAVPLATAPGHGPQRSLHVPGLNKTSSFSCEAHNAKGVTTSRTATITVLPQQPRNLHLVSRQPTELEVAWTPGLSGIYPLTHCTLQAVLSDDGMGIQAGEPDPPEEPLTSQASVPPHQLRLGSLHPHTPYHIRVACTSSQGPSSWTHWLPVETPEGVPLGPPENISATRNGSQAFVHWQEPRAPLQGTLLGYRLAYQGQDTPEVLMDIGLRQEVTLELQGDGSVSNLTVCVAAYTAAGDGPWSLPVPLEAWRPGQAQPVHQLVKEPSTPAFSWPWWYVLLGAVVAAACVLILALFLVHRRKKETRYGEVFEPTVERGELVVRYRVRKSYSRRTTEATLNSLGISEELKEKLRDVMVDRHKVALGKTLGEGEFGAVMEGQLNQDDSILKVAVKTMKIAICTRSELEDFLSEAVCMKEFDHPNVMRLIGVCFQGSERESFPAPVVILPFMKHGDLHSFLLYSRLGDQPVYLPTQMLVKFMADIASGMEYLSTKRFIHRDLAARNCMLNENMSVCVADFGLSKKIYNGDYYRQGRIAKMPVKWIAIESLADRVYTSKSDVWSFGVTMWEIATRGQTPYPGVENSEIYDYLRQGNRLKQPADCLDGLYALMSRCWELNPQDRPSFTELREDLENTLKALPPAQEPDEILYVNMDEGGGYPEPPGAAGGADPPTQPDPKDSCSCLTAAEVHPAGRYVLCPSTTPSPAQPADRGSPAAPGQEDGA

Work on O=C1C=CCC(/C=C/c2ccccc2)N1C(=O)/C=C/c1ccccc1 (configuration not stated) yielded an IC50 [1] of 16.3 µM.

For O=C1C=CCC(/C=C/c2ccccc2)N1C(=O)CCc1ccc(O)c(O)c1 (configuration not stated), the IC50 [1] was 6.8 µM.

For COc1cc(/C=C/C(=O)N2C(=O)C=CCC2/C=C/c2ccccc2)ccc1O (configuration not stated), the IC50 [1] was 15.6 µM.

In the case of COc1cc(/C=C/C(=O)N2CCC=CC2=O)cc(OC)c1OC [PIPLARTINE], the selectivity ratio [2] is reported as 5, the IC50 (HaCaT) is reported as 16 µM and the IC50 [1] is reported as 3.2 µM.

With C/C=C/C(=O)N1C(=O)C=CCC1/C=C/c1ccccc1 (configuration not stated) the IC50 [1] was 4.2 µM.

For COc1cc(/C=C/C(=O)N2C(=O)C=CCC2/C=C/c2ccccc2)cc(OC)c1OC (configuration not stated), the Activity (PANC-1 [3]) was “Active”, the selectivity ratio [2] was 3.14 and the Activity (PANC-1 [4]) was “Active”. For the same compound, the Activity (PANC-1 [5]) was “Active”, the Activity [6] was “Active” and the inhibition [7] was “Active”. The Activity (PANC-1 [8]) was “Active”, the Activity [9] was 90% and the Activity (PANC-1 [10]) was “Active”. For the same compound, the IC50 (HaCaT) was 8.5 µM, the Activity (PANC-1 [11]) was “Active” and the Activity (PANC-1 [12]) was “Active”. The inhibition [13] was “Active”, the IC50 [14] was 2.7 µM and the Activity [15] was 40%. The inhibition [16] was “Active”, the IC50 [1] was 2.7 µM and the Activity (PANC-1 [17]) was “Active”. The Activity (PANC-1 [18]) was “Dose-dependent effect”.

With O=C1C=CC[C@H](/C=C/c2ccccc2)O1 [GONIOTHALAMIN] the selectivity ratio [2] was 0.44, the Activity (PANC-1 [19]) was “inactive” and the Activity [6] was “Active”. The Activity (PANC-1 [20]) was “Active”, the IC50 (HaCaT) was 28.6 µM and the Activity (PANC-1 [21]) was “Active”. The Activity [22] was “Active”, the Activity (PANC-1 [23]) was “Active” and the Activity (PANC-1 [24]) was “Active”. For the same compound, the IC50 [14] was 65 µM, the Activity (PANC-1 [25]) was “Active” and the Activity (PANC-1 [26]) was “Active”. The Activity [27] was 50%, the Activity (PANC-1 [28]) was “Dose-dependent effect” and the IC50 [1] was 65 µM. For the same compound, the Activity (PANC-1 [29]) was “Active”, the Activity (PANC-1 [30]) was “Active” and the Activity [31] was 70%.

For C=CC(=O)N1C(=O)C=CCC1/C=C/c1ccccc1 (configuration not stated), the IC50 [1] was 8.1 µM.

In the case of CC(=O)N1C(=O)C=CCC1/C=C/c1ccccc1 (configuration not stated), the Activity (PANC-1 [28]) is reported as “Dose-dependent effect” and the IC50 [1] is reported as 42.3 µM.

In the case of O=C1C=CCC(/C=C/c2ccccc2)N1 (configuration not stated), the Activity [6] is reported as “Not Active” and the IC50 [1] is reported as over 100 µM.

With O=C1C=CCC(/C=C/c2ccccc2)N1C(=O)/C=C/c1ccc(O)c(O)c1 (configuration not stated) the IC50 [1] was 5.7 µM.

For COC(=O)N1C(=O)C=CCC1/C=C/c1ccccc1 (configuration not stated), the Activity (PANC-1 [28]) was “Dose-dependent effect” and the IC50 [1] was 53.7 µM.

From ChEMBL document CHEMBL3351649, “A new goniothalamin N-acylated aza-derivative strongly downregulates mediators of signaling transduction associated with pancreatic cancer aggressiveness” (Eur J Med Chem, 2014)
